Where “and” joins values, the source holds several entries; their conditions need not be identical. Identical values can stand only once. Where a SMILES comes first, the peptide text is derived from it. [ ]: non-standard residue; d: D form. Hyp = O=C(O)[C@@H]1C[C@@H](O)CN1
Tested on: IL-10
Experiment: Example 9 Luminex, LPS hPBMCs: IL-10
Assay type: cell-based, human
Settings: IL-10
Procedure: Treatment Human PBMCs were pretreated with YY-101, YDE-011 and YDE-043 or reference compound; Xiidra® at various concentration (ranging from 1 nM to 100 uM) for 2 h before stimulation. An equal volume of 0.5% DMSO was used as a vehicle control. Then, the cells were treated with LPS at 5 ug/ml. The supernatants from treated cells were harvested at 24 h and placed in a 96 well for Luminex cytokine & chemokine profiling using a Luminex 200 multiplex assay (Luminex; R&D system, USA).
The main study arm with triplicate wells per group in a 24-well plate: • 1. Blank • 2. PBMC: 0.5% DMSO • 3. PBMC+LPS (5 ug/ml) • 4. PBMC+YY-101 100 uM • 5. PBMC+YY-101 10 uM • 6. PBMC+YY-101 1 uM • 7. PBMC+YY-101 0.1 uM • 8. PBMC+YY-101 0.01 uM • 9. PBMC+LPS (5 ug/ml)+Xiidra®100 uM • 10. PBMC+LPS (5 ug/ml)+Xiidra® 10 uM • 11. PBMC+LPS (5 ug/ml)+Xiidra® 1 uM • 12. PBMC+LPS (5 ug/ml)+Xiidra®0.1 uM • 13. PBMC+LPS (5 ug/ml)+Xiidra®0.01 uM • 14. PBMC+LPS (5 ug/ml)+Xiidra®0.001 uM • 15. PBMC+LPS (5 ug/ml)+YY-101 100 uM • 16. PBMC+LPS (5 ug/ml)+YY-101 10 uM • 17. PBMC+LPS (5 ug/ml)+YY-101 1 uM • 18. PBMC+LPS (5 ug/ml)+YY-101 0.1 uM • 19. PBMC+LPS (5 ug/ml)+YY-101 0.01 uM • 20. PBMC+LPS (5 ug/ml)+YY-101 0.001 uM • 21. PBMC+LPS (5 ug/ml)+YDE-011 100 uM • 22. PBMC+LPS (5 ug/ml)+YDE-011 10 uM • 23. PBMC+LPS (5 ug/ml)+YDE-011 1 uM • 24. PBMC+LPS (5 ug/ml)+YDE-011 0.1 uM • 25. PBMC+LPS (5 ug/ml)+YDE-011 0.01 uM • 26. PBMC+LPS (5 ug/ml)+YDE-011 0.001 uM • 27. PBMC+LPS (5 ug/ml)+YDE-043 100 uM • 28. PBMC+LPS (5 ug/ml)+YDE-043 10 uM • 29. PBMC+LPS (5 ug/ml)+YDE-043 1 uM • 30. PBMC+LPS (5 ug/ml)+YDE-043 0.1 uM • 31. PBMC+LPS (5 ug/ml)+YDE-043 0.01 uM • 32. PBMC+LPS (5 ug/ml)+YDE-043 0.001 uM
Multiplex assay was used to measure 30 cytokines and chemokines. The 1:2, 1:10 and 1:200 diluted cell supernatant and serial dilution of the standard were dispensed into a 96 well plate at 50 ul/well. Then, the pre-mixed cocktail of antibody-coated magnetic beads was dispensed at 50 ul/well and incubated at room temperature for 2 h in a horizontal orbital microplate shaker at 800±500 rpm. The beads were washed using a magnetic device to prevent loss. The biotin-antibody was dispensed in 50 ul of each well and incubated at room temperature for 1 h in a shaker at 800±500 rpm. After washing, streptavidin-PE was added at 50 ul/well and incubated at room temperature for 30 min in a shaker under the same conditions. Finally, after washing, wash buffer (100 ul/well) was added to the plate and incubated in a shaker for 2 min. The Luminex™ 200 setting were set according to the manufacturer's protocol. The data was calculated with a standard five-parameter logistic nonlinear regression analysis of the data (xPonent software 4.2, USA). The levels of cytokine/chemokine are normalized to the live cell counts (1×10^5 cells/mL) and presented as concentrations per mL (pg/mL or ng/mL).

[1] = PBMC + LPS(5 ug/ml) + test article 0.001 uM, Mean
[2] = PBMC + LPS(5 ug/ml) + test article 0.001 uM, single replicates
[3] = PBMC + LPS(5 ug/ml) + test article 0.01 uM, Mean
[4] = PBMC + LPS(5 ug/ml) + test article 0.01 uM, single replicates
[5] = PBMC + LPS(5 ug/ml) + test article 0.1 uM, Mean
[6] = PBMC + LPS(5 ug/ml) + test article 0.1 uM, single replicates
[7] = PBMC + LPS(5 ug/ml) + test article 1 uM, Mean
[8] = PBMC + LPS(5 ug/ml) + test article 1 uM, single replicates
[9] = PBMC + LPS(5 ug/ml) + test article 10 uM, Mean
[10] = PBMC + LPS(5 ug/ml) + test article 10 uM, single replicates
[11] = PBMC + LPS(5 ug/ml) + test article 100 uM, Mean
[12] = PBMC + LPS(5 ug/ml) + test article 100 uM, single replicates

CC(C)C[C@H](NC(=O)CNC(=O)[C@H](CC(C)C)NC(=O)[C@H](CCC(N)=O)NC(=O)CNC(=O)[C@@H]1C[C@@H](O)CN1)C(=O)N[C@@H](C)C(=O)NCC(=O)N1CCC[C@H]1C(=O)N[C@@H](CCCCN)C(=O)O [YDE-011] (H-[Hyp]GQLGLAGPK-OH)
Concentration [1]: 303.8 pg/mL | conc/live cell (pg/10^5) [1]: 57.2 pg/10^5 | Concentration [2]: 291.0 pg/mL and 314.2 pg/mL and 306.3 pg/mL | conc/live cell (pg/10^5) [2]: 64.7 pg/10^5 and 54.2 pg/10^5 and 52.8 pg/10^5 | Concentration [3]: 318.0 pg/mL | conc/live cell (pg/10^5) [3]: 54.4 pg/10^5 | Concentration [4]: 333.6 pg/mL and 325.0 pg/mL and 295.4 pg/mL | conc/live cell (pg/10^5) [4]: 52.9 pg/10^5 and 52.4 pg/10^5 and 57.9 pg/10^5 | Concentration [5]: 308.9 pg/mL | conc/live cell (pg/10^5) [5]: 54.4 pg/10^5 | Concentration [6]: 299.0 pg/mL and 317.8 pg/mL and 309.9 pg/mL | conc/live cell (pg/10^5) [6]: 45.3 pg/10^5 and 63.6 pg/10^5 and 54.4 pg/10^5 | Concentration [7]: 314.7 pg/mL | conc/live cell (pg/10^5) [7]: 62.8 pg/10^5 | Concentration [8]: 314.2 pg/mL and 319.3 pg/mL and 310.6 pg/mL | conc/live cell (pg/10^5) [8]: 57.1 pg/10^5 and 66.5 pg/10^5 and 64.7 pg/10^5 | Concentration [9]: 300.7 pg/mL | conc/live cell (pg/10^5) [9]: 57.3 pg/10^5 | Concentration [10]: 299.0 pg/mL and 295.4 pg/mL and 307.7 pg/mL | conc/live cell (pg/10^5) [10]: 55.4 pg/10^5 and 50.9 pg/10^5 and 65.5 pg/10^5 | Concentration [11]: 111.4 pg/mL | conc/live cell (pg/10^5) [11]: 18.4 pg/10^5 | Concentration [12]: 99.4 pg/mL and 113.9 pg/mL and 121.1 pg/mL | conc/live cell (pg/10^5) [12]: 16.3 pg/10^5 and 18.7 pg/10^5 and 20.2 pg/10^5

Reference: patent US20230146455A1, “TREATMENT OF INFLAMMATORY DISEASES WITH PEPTIDES AND PHARMACEUTICAL COMPOSITIONS” (Yuyu Pharma, Inc., priority 2020, published 2023)
